Assay results: patent US20250382308A1, “COMPOUNDS ACTIVE TOWARDS BROMODOMAINS” (NUEVOLUTION A/S, priority 2022, published 2025)

Assays:
[1] = biological target: first bromodomain of BRD4 (Homo sapiens (Human), UniProt O60885); test: Bromoscan binding assay BRD4 (1)
Method: (§1) Compounds were assayed for binding affinity using bromoscan assays and a phosphodiesterase three assay.
(§2) Bromoscan assays were run by DiscoveRx Corporation. The relevant assay names are BRD4 (1) for the first bromodomain of BRD4 and BRD4 (2) for the second bromodomain of BRD4. Further Bromoscan assays covering other bromodomains may be employed to establish the selectivity profile of a compound of interest. To run the Bromoscan assay, a T7 phage strain displaying the relevant bromodomain was grown in parallel in 24-well blocks in an E. coli host derived from the BL21 strain. E. coli were grown to log-phase and infected with T7 phage from a frozen stock (multiplicity of infection=0.4) and incubated with shaking at 32° C. until lysis (90-150 minutes). The lysates were centrifuged (5,000×g) and filtered (0.2 μm) to remove cell debris. […] The liganded beads were blocked with excess biotin and washed with blocking buffer (SeaBlock (Pierce), 1% BSA (bovine serum albumin), 0.05% Tween 20, 1 mM DTT (dithiothreitol)) to remove unbound ligand and to reduce non-specific phage binding. […] Test compounds were prepared as 1000× stocks in 100% DMSO and subsequently diluted 1:10 in monoethylene glycol (MEG) to create stocks at 100× the screening concentration (resulting stock solution is 10% DMSO/90% MEG). The compounds were then diluted directly into the assays such that the final concentration of DMSO and MEG were 0.1% and 0.9%, respectively. All reactions were performed in polystyrene 96-well plates in a final volume of 0.135 ml. […] The bromodomain concentration in the eluates was measured by qPCR (quantitative real-time polymerase chain reaction). Binding constants (Kds) were calculated with a standard dose-response curve using the Hill equation: Response=Blackground+((Signal-Background)/(1+Kd^Hill Slope/Dose^Hill Slope)). The Hill Slope was set to −1. Curves were fitted using a non-linear least square fit with the Levenberg-Marquardt algorithm.

[2] = biological target: second bromodomain of BRD4 (Homo sapiens (Human), UniProt O60885); test: Bromoscan binding assay BRD4 (2); conditions: geometric mean where multiple measurements have been made
Method: as §1, §2

[3] = biological target: human recombinant phosphodiesterase (PDE3A) (Homo sapiens (Human), UniProt Q14432); test: Radiometric PDE3A assay; assay type: biochemical; conditions: [3H]-cAMP hydrolysis, 20 minutes at 30° C.
Method: Partially purified human recombinant phosphodiesterase (PDE3A) was obtained by cloning cDNA and expressing in S. frugiperda insect cells using a baculovirus expression system. Cells were harvested from culture by centrifuging at 400×g for 5 minutes. Cell pellet was resuspended in 20 ml of RIPA Buffer (150 mM NaCl, 10 mM Tris, 0.1% NP-40, pH8.3), 4 ml/200 ml of culture, plus protease inhibitors (100 μl/10 ml) and incubated on ice for 10-20 minutes then spun at 3500×g for 10 minutes at 4° C. Supernatant was kept and the pellet thrown away. Tritium-labeled cyclic AMP was hydrolysed to 5′-AMP by PDE3A. The 5′-AMP was then further hydrolysed to adenosine by nucleotidase in snake venom. An anion-exchange resin binds all charged nucleotides and leaves [3H]adenosine as the only labeled compound to be counted by liquid scintillation. The radiometric assay method is a modification of the two-step method of Thompson and Appleman [Biochemistry 10; 311-316; 1971], adapted for a 96 well plate format. 50 μl of diluted PDE3A was incubated with 50 μl of [3H]-CAMP (specific activity 25 Ci/mmol) and 11 μl of 50% DMSO (or compound dilution) for 20 minutes at 30° C. The enzyme was diluted in 20 mM Tris HCl pH7.4 (×2.2 final concentration) and [3H]-cAMP were diluted in 10 mM MgCl2, 40 mM Tris HCl pH 7.4 (×2.2 final concentration). Reactions were carried out in Greiner 96 deep well 1 ml master-block. The plates were centrifuged for 9 seconds before the 20 minutes incubation. The reaction was terminated by denaturing the PDE enzyme (at 70° C. for 2 minutes, plates were left to cool on ice for 10 minutes) after which 25 μl snake venom nucleotidase (225 ug/ml final concentration) was added and incubated for 10 minutes (at 30° C.), plates were centrifuged for 9 seconds before incubation. After incubation 200 μl Dowex resin (1×8, 200-400 mesh) was added and the plate was shaken for 20 minutes then centrifuged for 3 minutes at 1000×g. 50 μl of supernatant was removed and added to 200 μl of MicroScint-20 in white plates (Greiner 96-well Optiplate) and shaken for 30 minutes before reading on Perkin Elmer TopCount Scintillation Counter. GraphPad Prism™ was used to calculate the IC50 values using a sigmoidal dose response (variable slope). The analysis measures 4 parameters including the best fit values for the bottom and top fit of the curve, the hill slope value and the IC50 value.

human recombinant phosphodiesterase (PDE3A), sequence (Q14432 whole entry): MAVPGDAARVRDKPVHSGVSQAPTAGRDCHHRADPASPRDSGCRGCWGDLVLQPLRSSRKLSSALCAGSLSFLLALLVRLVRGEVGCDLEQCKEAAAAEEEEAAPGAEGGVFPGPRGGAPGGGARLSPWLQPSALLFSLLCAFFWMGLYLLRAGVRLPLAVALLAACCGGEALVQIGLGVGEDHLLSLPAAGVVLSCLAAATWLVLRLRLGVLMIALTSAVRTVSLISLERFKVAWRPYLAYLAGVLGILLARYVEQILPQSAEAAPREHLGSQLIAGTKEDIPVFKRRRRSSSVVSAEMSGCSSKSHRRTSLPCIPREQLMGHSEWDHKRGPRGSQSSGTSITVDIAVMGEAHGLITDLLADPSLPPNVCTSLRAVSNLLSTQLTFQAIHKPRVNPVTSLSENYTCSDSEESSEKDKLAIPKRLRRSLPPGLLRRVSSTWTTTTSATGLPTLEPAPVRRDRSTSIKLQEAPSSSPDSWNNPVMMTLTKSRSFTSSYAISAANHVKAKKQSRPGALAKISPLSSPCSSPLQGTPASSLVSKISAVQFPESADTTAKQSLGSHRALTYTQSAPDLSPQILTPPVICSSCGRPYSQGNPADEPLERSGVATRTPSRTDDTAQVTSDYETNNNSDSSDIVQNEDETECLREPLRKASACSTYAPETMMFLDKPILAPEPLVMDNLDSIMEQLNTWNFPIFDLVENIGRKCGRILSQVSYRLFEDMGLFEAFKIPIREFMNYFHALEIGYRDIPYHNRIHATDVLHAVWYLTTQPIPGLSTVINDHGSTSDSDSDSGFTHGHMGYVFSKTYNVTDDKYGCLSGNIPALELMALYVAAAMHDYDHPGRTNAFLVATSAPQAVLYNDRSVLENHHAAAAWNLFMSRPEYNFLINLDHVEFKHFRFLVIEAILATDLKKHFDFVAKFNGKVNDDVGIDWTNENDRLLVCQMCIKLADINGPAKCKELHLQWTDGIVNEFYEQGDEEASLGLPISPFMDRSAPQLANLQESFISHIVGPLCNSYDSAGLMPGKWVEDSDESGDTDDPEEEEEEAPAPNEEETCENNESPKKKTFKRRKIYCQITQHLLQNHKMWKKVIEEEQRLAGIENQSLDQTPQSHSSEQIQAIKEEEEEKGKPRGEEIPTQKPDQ

## COc1cc(NC(=O)c2cc3c(nc2N2CC[C@H](F)C2)COC3)cc2c(C)cc(=O)[nH]c12 [Example 41, 2-[(3S)-3-fluoropyrrolidin-1-yl]-N-(8-methoxy-4-methyl-2-oxo-1H-quinolin-6-yl)-5,7-dihydrofuro[3,4-b]pyridine-3-carboxamide]
[1]; Bromoscan, geometric mean where multiple measurements have been made
  Kd: 0.092 µM
[1]; ratio BRD4(2) Kd / BRD4(1) Kd
  Selectivity BRD4(2)/BRD4(1): >109
[2]
  Kd: > 10 µM
[3]
  IC50: > 10 µM
